According to ChEMBL document CHEMBL5506042, “Discovery of the Clinical Candidate IDOR-1117-2520: A Potent and Selective Antagonist of CCR6 for Autoimmune Diseases” (J Med Chem, 2024):
Calls of active or inactive are those of the source. The rule behind the calls is not given here.

Tests used:
[1] = Cmax in Wistar rat at 10 mg/kg, po; format: ADME, organism-based; details: in vivo
[2] = Tmax in Wistar rat at 10 mg/kg, po; format: ADME, organism-based; details: in vivo
[3] = Fraction unbound in mouse plasma at 1 uM by rapid equilibrium dialysis based LC-MS/MS analysis; format: ADME, cell-free
[4] = Fraction unbound in rat plasma at 1 uM by rapid equilibrium dialysis based LC-MS/MS analysis; format: ADME, cell-free
[5] = Intrinsic clearance in rat liver microsomes at 3 uM measured for 15 mins in presence of NADPH regenerating system by LC-MS/MS analysis; format: ADME, Microsome; details: read-out: CLH
[6] = Volume of distribution at steady state in Wistar rat at 1 mg/kg, iv; format: ADME, organism-based; details: in vivo, read-out: Vdss
[7] = Tmax in C57BL/6 mouse at 50 mg/kg, po; format: ADME, organism-based; details: in vivo
[8] = Chemical stability of the compound at 0.1 mg/ml at pH 4 irradiated with xenon lamp at 250W/m2 incubated for 24 hrs by stress test; format: physicochemical; details: buffer, read-out: Stability
[9] = Cmax in Wistar rat at 50 mg/kg, po; format: ADME, organism-based; details: in vivo
[10] = Tmax in C57BL/6 mouse at 15 mg/kg, po; format: ADME, organism-based; details: in vivo
[11] = Cytotoxicity against human HepG2 cells assessed as reduction in cell viability incubated for 72 hrs by CellTiter-Glo assay
[12] = Intrinsic clearance in mouse liver microsomes at 1 uM measured for 15 mins in presence of NADPH regenerating system by LC-MS/MS analysis; format: ADME, Microsome; details: read-out: CLH
[13] = Chemical stability of the compound at 0.1 mg/ml at pH 2 irradiated with xenon lamp at 250W/m2 incubated for 24 hrs by stress test; format: physicochemical; details: buffer, read-out: Stability
[14] = Chemical stability of the compound at 0.1 mg/ml at pH 7 irradiated with xenon lamp at 250W/m2 incubated for 24 hrs by stress test; format: physicochemical; details: buffer, read-out: Stability
[15] = Lipophilicity, LogD of the compound in 1-Octanol/PBS at pH 7.4 by miniaturized shake flask method
[16] = Chemical stability of the compound at 0.1 mg/ml at pH 9 irradiated with xenon lamp at 250W/m2 incubated for 24 hrs by stress test; format: physicochemical; details: buffer, read-out: Stability
[17] = AUC in Wistar rat at 10 mg/kg, po; format: ADME, organism-based; details: in vivo
[18] = Intrinsic clearance in rat liver microsomes at 1 uM measured for 15 mins in presence of NADPH regenerating system by LC-MS/MS analysis; format: ADME, Microsome; details: read-out: CLH
[19] = AUC in C57BL/6 mouse at 50 mg/kg, po; format: ADME, organism-based; details: in vivo
HepaRG = experiment: Cytotoxicity against human HepaRG cells assessed as leakage of intracellular LDH at 30 uM incubated for 24 hrs by spectrophotometry
[20] = Tmax in Wistar rat at 50 mg/kg, po; format: ADME, organism-based; details: in vivo
[21] = target: T1, C-C chemokine receptor type 6 (Mus musculus, UniProt O54689); experiment: Antagonist activity at CCR6 in C57BL/6J mouse whole blood assessed as inhibition of CCL20-stimulated receptor internalization in lymphocytes incubated for 40 mins followed by CCL20 addition and measured after 40 mins by flow cytometry
T1 sequence (O54689 whole entry): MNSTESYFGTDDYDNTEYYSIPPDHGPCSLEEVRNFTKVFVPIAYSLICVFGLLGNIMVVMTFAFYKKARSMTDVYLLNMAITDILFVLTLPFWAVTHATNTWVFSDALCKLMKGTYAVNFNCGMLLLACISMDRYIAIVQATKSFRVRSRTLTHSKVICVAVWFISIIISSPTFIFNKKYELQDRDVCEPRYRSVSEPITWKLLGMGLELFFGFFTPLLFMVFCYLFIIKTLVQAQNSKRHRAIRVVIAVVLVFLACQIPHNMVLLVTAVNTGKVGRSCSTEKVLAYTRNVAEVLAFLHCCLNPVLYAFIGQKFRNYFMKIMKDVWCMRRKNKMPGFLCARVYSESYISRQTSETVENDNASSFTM

[22] = AUC in Wistar rat at 50 mg/kg, po; format: ADME, organism-based; details: in vivo
Mus musculus [23] = experiment: Inhibition of chemotaxis of CCR6-positive B cells in bronchoalveolar lavage fluid in ovalbumin-induced inflammation BALB/c mouse model at 15 mg/kg/day, po treated with OVA and compound from day 1 to day 18 and measured at 24 hrs post last dose of OVA challenge by flow cytometry; format: functional, organism-based; details: time 18.0 day
[24] = Chemical stability of the compound at 0.1 mg/ml at pH 10 irradiated with xenon lamp at 250W/m2 incubated for 24 hrs by stress test; format: physicochemical; details: buffer, read-out: Stability
Mus musculus [25] = experiment: Inhibition of chemotaxis of CCR6-positive B cells in bronchoalveolar lavage fluid in ovalbumin-induced inflammation BALB/c mouse model at 15 mg/kg/day, po treated with OVA from day 1 to day 18 and with compound from day 8 to 18 and measured at 24 hrs post last dose of OVA challenge by flow cytometry; format: functional, organism-based; details: time 11.0 day
[26] = AUC in C57BL/6 mouse at 15 mg/kg, po; format: ADME, organism-based; details: in vivo
[27] = fCmax in po dosed C57BL/6 mouse; format: ADME, organism-based; details: in vivo
[28] = Half life in Wistar rat at 1 mg/kg, iv; format: ADME, organism-based; details: in vivo
[29] = Oral bioavailability in Wistar rat at 50 mg/kg; format: ADME, organism-based; details: in vivo
[30] = Cmax in C57BL/6 mouse at 50 mg/kg, po; format: ADME, organism-based; details: in vivo
[31] = Cmax in C57BL/6 mouse at 15 mg/kg, po; format: ADME, organism-based; details: in vivo
[32] = Intrinsic clearance in human liver microsomes at 1 uM measured for 15 mins in presence of NADPH regenerating system measured per mg protein by LC-MS/MS analysis; format: ADME, Microsome; details: read-out: CLH
[33] = Oral bioavailability in Wistar rat at 10 mg/kg; format: ADME, organism-based; details: in vivo
[34] = Intrinsic clearance in rat liver microsomes at 0.1 uM measured for 15 mins in presence of NADPH regenerating system by LC-MS/MS analysis; format: ADME, Microsome; details: read-out: CLH
[35] = Clearance in Wistar rat at 1 mg/kg, iv; format: ADME, organism-based; details: in vivo

Cmax [1]: 110 ng/mL
Tmax [2]: 30 min
fraction unbound at 1 µM [3]: 0.05
fraction unbound at 1 µM [4]: 0.06
microsomal CLint at […], 3 µM [5]: 450 µL/min/mg
Vd [6]: 11 L/kg
Tmax [7]: 120 min
remaining at 24 h, 0.1 mg/ml [8]: 4%
Cmax [9]: 308 ng/mL
Tmax [10]: 30 min
microsomal CLint at […], 1 µM [12]: 666 µL/min/mg
remaining at 24 h, 0.1 mg/ml [13]: 97%
remaining at 24 h, 0.1 mg/ml [14]: 3%
logD [15]: 2.2
remaining at 24 h, 0.1 mg/ml [16]: 2%
AUC [17]: 165 ng·h/mL
microsomal CLint at […], 1 µM [18]: 750 µL/min/mg
AUC [19]: 5030 ng·h/mL
Tmax [20]: 30 min
IC50 [21]: 0.0013 µM
AUC [22]: 1500 ng·h/mL
remaining at 24 h, 0.1 mg/ml [24]: 2%
AUC [26]: 145 ng·h/mL
fCmax [27]: 55 ng/mL
half-life [28]: 144 min
bioavailability [29]: 11%
Cmax [30]: 1100 ng/mL
Cmax [31]: 30 ng/mL
microsomal CLint at […], 1 µM [32]: 146 µL/min/mg
bioavailability [33]: 6%
microsomal CLint at […], 0.1 µM [34]: > 1250 µL/min/mg
clearance [35]: 62 mL/min/kg
Structure (SMILES): CN1CC(C)(C(O)(c2ccc(OC(F)(F)F)cc2)c2cncc(N3CCCC3)c2)C1 (racemic)
IC50 at 72 h [11]: 11 µM
Activity (HepaRG): Non-Toxic
inhibition (Mus musculus [23]): Active
inhibition (Mus musculus [25]): Active
